Key:
miR-221 = assay: Quantitative PCR of miR-221 expression in hEPCs; format: cell-based, human; conditions: for inhibiting the expression of miR-221: trimethylamine-N-oxide 300 μM, 125 μM DHA (embodiment 3) or EPA (embodiment 6), 24 hours, compared with comparison group 1
Description: To analyze the effects of the omega-3 polyunsaturated fatty in inhibiting the inflammatory responses induced by the activation of the trimethylamine-N-oxide, human endothelial progenitor cells are cultured in the MCDB-131 medium supplemented with the 10% fetal bovine serum and the EGM™-2 growth kit and are administered separately with reagent formulations of the control group 1, the comparison group 1, and the embodiments 1 to 6 shown in Table 1. After the culture time of 24 hours has elapsed, the expressions of cytokines related to the inflammatory responses in the human endothelial progenitor cells are analyzed by enzyme-linked immunosorbent assay (ELISA) and quantitative PCR (qPCR) so as to evaluate the effects of the omega-3 polyunsaturated fatty acids in inhibiting the inflammatory responses mediated by the activation of the trimethylamine-N-oxide. Each experiment is repeated 3 times.
In detail, according to the previous studies, miRNA-221 (“miR-221” hereafter) plays an essential role in the physiological metabolism of the human endothelial progenitor cells. […] Therefore, the present disclosure uses the quantitative PCR and the enzyme-linked immunosorbent assay to analyze the expressions of miR-221 and IL-6 in the human endothelial progenitor cells of the control group 1, the comparison group 1, and the embodiments 1 to 6 after cell culture for 24 hours so as to evaluate the effects of the omega-3 polyunsaturated fatty acids in inhibiting the inflammatory responses induced by the activation of the trimethylamine-N-oxide.
Furthermore, the operation details of the quantitative PCR and the enzyme-linked immunosorbent assay are well-known in the art and can be adjusted according to the experimental requirements, so the detailed steps thereof will not be described herein again.

[1] = test system: Akt/eNOS signaling pathway and MAPK/ERK signaling pathway; assay: Western blot of factors of the Akt/eNOS and MAPK/ERK signaling pathways in SCF-treated hEPCs; format: cell-based, human; conditions: SCF 20 ng/mL, trimethylamine-N-oxide 300 μM (comparison group 3) vs SCF alone (comparison group 2), 8 hours
Description: (§1) To analyze the effects of the omega-3 polyunsaturated fatty acids in alleviating the impairment of neovascularization induced by the activation of the trimethylamine-N-oxide, human endothelial progenitor cells are cultured in the MCDB-131 medium containing the EGM™-2 growth kit and the 10% fetal bovine serum in a Matrigel-coated 96-well plate. Then, the human endothelial progenitor cells are administered separately with reagent formulations of the control group 2, the comparison groups 2 to 3, and the embodiments 7 to 9 shown in Table 2, and incubated in an incubator at 37° C. for 8 hours.
(§2) After the culture time of 8 hours has elapsed, the human endothelial progenitor cells are fixed in glutaraldehyde/paraformaldehyde solution and treated with Calcein-AM solution so as to detect the fluorescent signals of different groups. The proteins of the human endothelial progenitor cells are extracted and analyzed by the Western blot analysis to confirm the expressions of factors related to the Akt/eNOS signaling pathway, the MAPK/ERK signaling pathway and the expression of gamma-glutamylcysteine synthetase (“γ-GCS” hereafter), wherein the γ-GCS participates in the synthesis of GSH. The GSH/GSSG ratios in the human endothelial progenitor cells are analyzed by using the liquid chromatography, the electrospray ionization, and the mass spectrometry. Each experiment is repeated 3 times. […]

[2] = test system: human endothelial progenitor cells; assay: GSH/GSSG ratio in hEPCs by liquid chromatography, electrospray ionization, mass spectrometry; format: cell-based; conditions: SCF 20 ng/mL, trimethylamine-N-oxide 300 μM (comparison group 3) vs SCF alone (comparison group 2), p<0.05
Description: as §1, §2

[3] = test system: human endothelial progenitor cells; assay: Neovasculogenesis index of hEPCs on Matrigel (Calcein-AM); format: cell-based; conditions: SCF 20 ng/mL, trimethylamine-N-oxide 300 μM (comparison group 3) vs SCF alone (comparison group 2), p<0.05
Description: as §1
After the culture time of 8 hours has elapsed, the human endothelial progenitor cells are fixed in glutaraldehyde/paraformaldehyde solution and treated with Calcein-AM solution so as to detect the fluorescent signals of different groups. The proteins of the human endothelial progenitor cells are extracted and analyzed by the Western blot analysis to confirm the expressions of factors related to the Akt/eNOS signaling pathway, the MAPK/ERK signaling pathway and the expression of gamma-glutamylcysteine synthetase (“γ-GCS” hereafter), wherein the γ-GCS participates in the synthesis of GSH. The GSH/GSSG ratios in the human endothelial progenitor cells are analyzed by using the liquid chromatography, the electrospray ionization, and the mass spectrometry. Each experiment is repeated 3 times.

Row | SMILES | inhibiting the expression of miR-221 (miR-221) | expression of miR-221 (miR-221; trimethylamine-N-oxide 300 μM alone (comparison group 1) vs control group 1, 24 hours) | expressions of p-Akt, p-eNOS, and p-ERK1/2 [1] | GSH/GSSG ratio [2] | neovasculogenesis index [3]
1 | CC/C=C\C/C=C\C/C=C\C/C=C\C/C=C\C/C=C\CCC(=O)O [DHA, docosahexaenoic acid] | 85% | – | – | – | –
2 | CC/C=C\C/C=C\C/C=C\C/C=C\C/C=C\CCCC(=O)O [EPA, eicosapentaenoic acid] | 75% | – | – | – | –
3 | C[N+](C)(C)[O-] [trimethylamine-N-oxide, Trimethylamine-N-oxide] | – | significantly higher | lower | significantly lower | significantly lower

From patent US20240148682A1, “METHOD FOR REGULATING DOWNSTREAM SIGNALING PATHWAY MEDIATED BY ACTIVATION OF TRIMETHYLAMINE-N-OXIDE” (China Medical University, priority 2022, published 2024)
